The structures appear in SMILES notation. Like-named read-outs stand apart in the source and are kept apart here.

One data set deals with neuropathic hyperalgesia. Briefly: Neuropathic hyperalgesia model, partial sciatic nerve ligation (Seltzer's model, Protocol V). Format: in vivo. Particulars: rat, 1 mg/kg I.P., paw pressure, 0.5 and 1 hour postdose. Here is the method:
V. Neuropathic Hyperalgesia Model—Partial Sciatic Nerve Ligation (Seltzer's Model)
This protocol was performed with the compound of Example 294 at 0.01, 0.1, 0.3, and 1 mg/kg (I.P.), and gabapentin at 100 mg/kg (I.P.) to evaluate the ability of the compound of Example 294 in reducing neuropathic hyperalgesia. The Seltzer method is also generally described in Seltzer et al., Pain 1990, 43:205-18. • 1. Rats were anesthetised using ketamine/xylazine (40/5 mg/kg/ml, i.p.). After induction of anaesthesia, the left thigh was shaved and cleaned. • 2. The left sciatic nerve was exposed at mid thigh level through a small incision. • 3. The nerve was cleared from adhering muscle tissue. • 4. One half of the nerve thickness was tightly ligated just after the bifurcation of common sciatic nerve using 7.0 silk sutures. • 5. The wound was closed with muscle and skin sutures and povidone was applied. • 6. […] Paw withdrawal thresholds were recorded for both the ipsilateral and the contralateral hind paws before (predose) and 0.5 and 1 hour after drug or vehicle administration (postdose). • 9. […]
The threshold withdrawal latency (naïve, predose & postdose) values are represented as mean±SEM. […] The percent reversal of neuropathic mechanical hyperalgesia was calculated from withdrawal threshold latency values according to the following formula: […]

Data set [1] concerns the target T1, CB1 (Rattus norvegicus, UniProt P20272). Briefly: GTPγS binding assay, CB1 functional assay in rat cerebellar membrane (Protocol VIII). On the set-up: 10 μg rat cerebellum membrane; from tissue; host or cells: rat cerebellum membrane, prepared in-house. Particulars: for activation at 0.3 µM: 1 h, GTPγS binding over basal, rat cerebellar membrane, tested at 300 nM, read-out: Per Se % Stimulation; for inhibition at 0.3 µM: GTPγS binding, tested at 300 nM in presence of 1 μM WIN 55,212-2, read-out: % Inhibition of WIN-55212-2 induced stimulation. It counts as biochemical. The essentials:
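Rat cerebellar membranes (10 μg) incubated 1 h at 30 °C with 0.2 nM [35S]GTPγS, 50 μM GDP, and compound at 1 μM or 300 nM, alone or with 1 μM WIN 55,212-2, in Tris/MgCl2/EGTA/NaCl pH 7.4. Filter-bound radioactivity counted; percent stimulation calculated against basal specific binding (nonspecific defined by 10 μM GTPγS).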

In data set [2] the target is T1, CB1. Briefly: Rat CB1 receptor binding using brain membrane, [3H]SR141716A displacement (Protocol I). Also on record: CB1 receptor present in a rat brain membrane preparation; from tissue; host or cells: rat brain membrane; inhibition: dose or concentration left out as unconfirmed. Particulars: 1 h, read-out: % Displacement Protocol I, rat brain membrane, [3H]SR141716A displacement.

Another data set relates to CB2 receptor. Briefly: Rat CB2 receptor binding using spleen membrane, [3H]CP55,940 displacement (Protocol III). The method, then: III. In Vitro Protocol for Rat CB2 Receptor Binding Using Spleen Membrane
In this assay, [^3H]CP55,940 was used to bind the CB2 receptor present in a rat spleen membrane preparation which can be displaced by unlabeled ligands having affinity to the CB2 receptor.
The assay was performed according to the modified method of Rinaldi-Carmona et al., 1998 (JPET 284: 644-650). The total reaction mixture ([…]) contained Tris-BSA buffer (50 mM Tris, pH 7.4 with 1.5% BSA) or unlabeled SR144528 (N-[(1S)-endo-1,3,3-trimethyl bicyclo[2.2.1]heptan-2-yl]-5-(4-chloro-3-methylphenyl)-1-(4-methyl-benzyl)-pyrazole-3-carboxamide]) ([…]) or test samples (300 nM), [^3H]CP55,940 (1 nM) and […] of rat […] membrane. The non-specific binding was defined by […] of SR144528. The assay mixture was incubated at 37° C. for 1 hour. The reaction was then stopped by rapid filtration under vacuum using a Whatman GF/B-96 micro filter plate. A scintillation cocktail was added and radioactive counts were measured using a Topcount beta scintillation counter.
The standard and test sample dilutions were made in an assay buffer containing either ethanol or DMSO at a final concentration of 1%.
The percent (%) displacement by a test ligand was calculated by comparing the specific bound values.

Data set [3] addresses T2, hCB1 (Homo sapiens, UniProt P21554). Briefly: Agonism of CB1 receptors expressed in CHO cells, forskolin cAMP assay (Protocol IX.2). Format: cell-based. Also on record: expressed in transfected cells; host or cells: CHO (h-CB1/CHO, G418-selected). Here is the method: IX. Assay for Determining Agonist and Antagonist Activity to CB1 and CB2 Receptors
2. Agonism of CB1/CB2 Receptors Expressed in CHO Cells
h-CB1/CHO or h-CB2/CHO cells were grown in HAM's F12 DMEM medium (Sigma) with 10% FBS (Hyclone), 1% penicillin-streptomycin solution and 400 μg/ml of G418 (Sigma). 5000 cells were seeded per well in a 96 well plate and incubated for 24 hours at 37° C. in 5% CO2. On the day of assay, cells were washed with warm Krebs Buffer containing 0.1% fatty acid free (FAF) BSA (Sigma) and re-suspended in the same buffer containing 1 mM IBMX. […] At the end of incubation, cells were lysed using lysis reagent from the cAMP estimation kit and cAMP was quantitated by chemiluminescence method described in the manufacturer's instructions (DiscoveRX). EC50 values were calculated from dose response curves by nonlinear regression analysis using PRISM software.

In data set [4] the target is T2, hCB1. Briefly: Antagonism of CB1 receptors expressed in CHO cells, cAMP assay against CP 55,940 (Protocol IX.1). Particulars: CHO, read-out: hCB1 Antagonism. It counts as cell-based. Also on record: expressed in transfected cells; host or cells: CHO (h-CB1/CHO, G418-selected).
In data set [5] the test system is voluntary ethanol intake. Particulars: rats; cited from earlier work.
Data set [6] deals with voluntary ethanol intake. Particulars: mice; cited from earlier work.

T1 sequence (P20272 whole entry): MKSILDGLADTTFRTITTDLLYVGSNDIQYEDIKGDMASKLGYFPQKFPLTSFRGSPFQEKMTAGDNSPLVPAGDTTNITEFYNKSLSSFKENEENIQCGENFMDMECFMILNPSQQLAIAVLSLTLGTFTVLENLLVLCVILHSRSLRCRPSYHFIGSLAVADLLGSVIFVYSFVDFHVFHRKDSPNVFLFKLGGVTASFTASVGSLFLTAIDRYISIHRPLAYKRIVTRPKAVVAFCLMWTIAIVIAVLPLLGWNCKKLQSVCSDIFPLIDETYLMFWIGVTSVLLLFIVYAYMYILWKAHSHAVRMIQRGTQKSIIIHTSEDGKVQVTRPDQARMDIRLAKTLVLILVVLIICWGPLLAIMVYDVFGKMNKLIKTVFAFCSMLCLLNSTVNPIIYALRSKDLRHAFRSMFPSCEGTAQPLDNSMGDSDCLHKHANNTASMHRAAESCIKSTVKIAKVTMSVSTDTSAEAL
T2 sequence (P21554 whole entry): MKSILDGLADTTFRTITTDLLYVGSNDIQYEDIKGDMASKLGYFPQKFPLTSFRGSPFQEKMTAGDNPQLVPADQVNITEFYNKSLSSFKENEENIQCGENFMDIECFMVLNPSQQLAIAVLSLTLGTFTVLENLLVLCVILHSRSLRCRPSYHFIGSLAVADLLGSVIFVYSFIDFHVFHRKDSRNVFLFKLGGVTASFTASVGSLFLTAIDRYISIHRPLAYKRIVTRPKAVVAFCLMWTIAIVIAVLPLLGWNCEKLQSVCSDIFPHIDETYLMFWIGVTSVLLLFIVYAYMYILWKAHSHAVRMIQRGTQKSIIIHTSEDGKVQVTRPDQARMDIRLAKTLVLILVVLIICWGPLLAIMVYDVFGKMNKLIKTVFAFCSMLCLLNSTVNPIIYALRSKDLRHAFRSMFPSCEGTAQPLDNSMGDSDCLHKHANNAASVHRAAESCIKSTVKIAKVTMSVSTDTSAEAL

Take `CC(C)(NC(=O)c1nn(-c2ccc(F)cc2F)c2c1C1CCC2C1)c1ccccc1` (stereo not drawn) [Example 294, N(3)-(1-Methyl-1-phenylethyl)-1-(2,4-difluorophenyl)-4,5,6,7-tetrahydro-1H-4,7-methano-indazole-3-carboxamide]: the melting point amounted to 105 °C. The “reversal of neuropathic hyperalgesia” value in the data set with neuropathic hyperalgesia is “significantly reversed neuropathic hyperalgesia”. Also, at CB1 [1], the activation at 0.3 µM is 103% and the inhibition at 0.3 µM is 9.8%. Also, the inhibition at CB1 [2] turned out to be 111%.

For `CC(C)(NC(=O)c1nn(-c2ccc(Cl)cc2)c2c1C1CC3CC(C1)CC2C3)c1ccccc1` [Example 119], the melting point was 181 °C. Moreover, the “% Displacement Protocol III” value in the data set on CB2 receptor is on record as 85.2%. The IC50 at hCB1 [3] was 38.3 nM. Further, the inhibition at 10 µM at hCB1 [4] came out at 18.4%. In addition, on CB1 [1], the activation at 0.3 µM turned out to be 46% and the inhibition at 0.3 µM came out at 38.9%.

The molecule `C[C@H](NC(=O)c1nn(-c2ccc(Cl)cc2)c2c1C1CC3CC(C1)CC2C3)c1ccccc1` [Example 117] showed a melting point of 85 to 86 °C. Besides, the “% Displacement Protocol III” value in the data set on CB2 receptor is given as 59.8%. For the same molecule, the half-maximal inhibitory concentration (IC50) on hCB1 [3] is 18.9 nM. Further, on CB1 [1], the activation at 0.3 µM stood at 4.4% and the inhibition at 0.3 µM is 55.7%.

With `Cc1c(C(=O)NN2CCCCC2)nn(-c2ccc(Cl)cc2Cl)c1-c1ccc(Cl)cc1` [SR-141716A, 5-(4-chlorophenyl)-1-(2,4-dichlorophenyl)-4-methyl-N-(1-piperidyl)pyrazole-3-carboxamide], the voluntary ethanol intake result in the data set on voluntary ethanol intake [5] and with voluntary ethanol intake [6] was “block voluntary ethanol intake” in each case.
